In ChEMBL document CHEMBL1134360, “Thiazole and thiadiazole analogues as a novel class of adenosine receptor antagonists” (J Med Chem, 2001):

Legend:
[1] = biological target: Adenosine receptor A2a (Rattus norvegicus) (UniProt P30543); assay: Displacement of [3H]CGS-21680 or [3H]ZM-241,385 binding in adenosine A2A receptor of rat striatal membrane at 10 uM
Adenosine receptor A3 = biological target: T1, Adenosine receptor A3 (Homo sapiens, UniProt P0DMS8); assay: Displacement of [125I]AB-MECA from human adenosine A3 receptor expressed in HEK 293 cells; type: cell-based, HEK293
T1 sequence (P0DMS8 whole entry): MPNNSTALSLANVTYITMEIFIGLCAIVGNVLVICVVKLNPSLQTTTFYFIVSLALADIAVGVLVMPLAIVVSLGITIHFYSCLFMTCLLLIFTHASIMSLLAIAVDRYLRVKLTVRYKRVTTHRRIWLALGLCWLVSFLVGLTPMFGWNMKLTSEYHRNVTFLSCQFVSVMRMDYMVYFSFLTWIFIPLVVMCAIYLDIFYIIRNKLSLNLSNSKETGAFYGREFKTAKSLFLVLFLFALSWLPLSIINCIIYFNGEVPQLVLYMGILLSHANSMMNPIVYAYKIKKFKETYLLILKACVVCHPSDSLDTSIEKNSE

Adenosine receptor A1 = biological target: T2, Adenosine receptor A1 (Rattus norvegicus, UniProt P25099)
T2 sequence (P25099 whole entry): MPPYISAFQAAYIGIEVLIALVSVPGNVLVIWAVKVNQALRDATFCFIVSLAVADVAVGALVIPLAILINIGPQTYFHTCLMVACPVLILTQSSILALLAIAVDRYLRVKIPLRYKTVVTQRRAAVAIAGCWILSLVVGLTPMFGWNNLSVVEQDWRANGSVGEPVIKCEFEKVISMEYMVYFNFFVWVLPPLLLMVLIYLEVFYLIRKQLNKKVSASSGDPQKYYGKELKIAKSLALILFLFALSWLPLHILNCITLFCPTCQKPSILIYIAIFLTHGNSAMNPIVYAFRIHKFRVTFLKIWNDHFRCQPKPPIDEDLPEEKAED
Description: Displacement of [3H]DPCPX binding to adenosine A1 receptor of rat brain cortical membrane

Adenosine receptor A2a [2] = biological target: T3, Adenosine receptor A2a (Rattus norvegicus, UniProt P30543); assay: Displacement of [3H]-CGS-21,680 or [3H]ZM-241385 binding in adenosine A2A receptor of rat striatal membrane was determined
Adenosine receptor A2a [3] = biological target: T3, Adenosine receptor A2a; assay: Displacement of [3H]-CGS- 21680 binding in adenosine A2A receptor of rat striatal membrane
[4] = biological target: T4, Adenosine receptor A3 (Homo sapiens) (UniProt P0DMS8); assay: Displacement of [125I]AB-MECA from adenosine A3 receptor expressed in HEK 293 cells at 10 uM; conditions: HEK293
T4 sequence (whole entry): T1 sequence (P0DMS8 whole entry)

[5] = biological target: T5, Adenosine receptor A1 (Rattus norvegicus) (UniProt P25099); assay: Displacement of [3H]DPCPX binding in adenosine A1 receptor of rat brain cortical membrane at a concentration of 10 uM
T5 sequence (whole entry): T2 sequence (P25099 whole entry)

[6] = biological target: Adenosine receptor A2a (Rattus norvegicus) (UniProt P30543); assay: Percentage displacement of [3H]-CGS- 21680 binding in adenosine A2A receptor of rat striatal membrane at a concentration of 10 uM
[7] = biological target: T5, Adenosine receptor A1 (Rattus norvegicus); assay: Percentage displacement of [3H]DPCPX binding in adenosine A1 receptor of rat brain cortical membrane at a concentration of 10 uM
[8] = biological target: Adenosine receptor A2a (Rattus norvegicus) (UniProt P30543); assay: Displacement of [3H]ZM-241385 binding in adenosine A2A receptor of rat striatal membrane at a concentration of 10 uM
[9] = biological target: T5, Adenosine receptor A1 (Rattus norvegicus); conditions: 10 uM
Description: Percent displacement of [3H]DPCPX binding in adenosine A1 receptor of rat brain cortical membrane at a concentration of 10 uM

[10] = biological target: Adenosine receptor A2a (Rattus norvegicus) (UniProt P30543); assay: Percent displacement of [3H]-CGS- 21680 binding in adenosine A2A receptor of rat striatal membrane at a concentration of 10 uM

T3 sequence (P30543 whole entry): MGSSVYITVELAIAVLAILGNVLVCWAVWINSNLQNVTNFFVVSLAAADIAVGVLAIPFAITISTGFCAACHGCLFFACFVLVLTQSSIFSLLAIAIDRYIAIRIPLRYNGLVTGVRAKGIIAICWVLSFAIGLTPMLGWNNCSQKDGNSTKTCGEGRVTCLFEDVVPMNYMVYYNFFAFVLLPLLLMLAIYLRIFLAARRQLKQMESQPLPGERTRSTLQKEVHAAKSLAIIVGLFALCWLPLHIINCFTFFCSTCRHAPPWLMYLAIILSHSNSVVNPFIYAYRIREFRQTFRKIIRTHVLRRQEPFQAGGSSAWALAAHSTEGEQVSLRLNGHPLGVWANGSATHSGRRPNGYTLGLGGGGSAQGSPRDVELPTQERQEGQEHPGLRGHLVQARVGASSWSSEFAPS
Sequence of Adenosine receptor A2a (Rattus norvegicus) (P30543 whole entry): as above

Row | SMILES | Displacement [1] | Ki (Adenosine receptor A3) | Ki (Adenosine receptor A1) | other results
1 | COc1ccc(C(=O)Nc2cc(-c3ccccc3)ncn2)cc1 | 31% | 800 nM |  | 
2 | COc1ccc(C(=O)Nc2nc(-c3ccccc3)ns2)cc1 |  | 82 nM | 32 nM | Ki (Adenosine receptor A2a [2]): 2300 nM
3 | Cc1ccc(C(=O)Nc2nc(-c3ccccc3)ns2)cc1 | 38.2% | 140 nM | 30 nM | 
4 | O=C(Nc1nc(-c2ccccc2)ns1)C1CCC(O)CC1 (stereo in doubt) [listing 1 of 2 here] |  | 1900 nM | 20 nM | 
5 | COc1ccccc1NC(=O)Nc1nc(-c2cccnc2)nc2ccccc12 |  | 4 nM | > 10000 nM | Ki (Adenosine receptor A2a [3]): > 10000 nM
6 | O=C(Nc1nc(-c2ccccn2)cs1)c1ccc([N+](=O)[O-])cc1 | 29% |  |  | 
7 | COc1ccc(C(=O)Nc2nc(-c3ccccn3)cs2)cc1 | 40% | 1800 nM | 3200 nM | 
8 | O=C(Nc1nc(-c2ccccc2)ns1)C1CCC(O)CC1 (stereo in doubt; 8n) [listing 1 of 2 here] | 41% |  |  | 
9 | COc1ccc(C(=O)NC2=NN(c3ccccc3)CC2)cc1 | 19% |  |  | Displacement [4]: 41%; Displacement [5]: 26%
10 | O=C(O)COc1ccc(C(=O)Nc2nc(-c3ccccc3)ns2)cc1 |  | 1200 nM | 100 nM | Ki (Adenosine receptor A2a [2]): 15000 nM
11 | COc1ccc(C(=O)Nc2nc(-c3ccccc3)ns2)cc1C | 8% | 580 nM |  | Displacement [5]: 48%
12 | COc1ccc(C(=O)Nc2cccc(-c3ccccc3)n2)cc1 | 16% | 8700 nM |  | Displacement [5]: 46%
13 | COC1CCC(C(=O)Nc2nc(-c3ccccc3)ns2)CC1 (stereo in doubt; 8k) |  | 1700 nM | 32 nM | Ki (Adenosine receptor A2a [2]): 1900 nM
14 | O=C(Nc1nc(-c2ccccn2)cs1)c1ccc(Cl)cc1 | 30% |  |  | 
15 | O=C(Nc1nc(-c2ccccn2)cs1)c1cccc(Cl)c1 |  | 4600 nM | 1700 nM | Ki (Adenosine receptor A2a [2]): 1300 nM
16 | O=C(Nc1nc(-c2ccccc2)cc2ccccc12)c1ccccc1 |  | 1200 nM | 1200 nM | Displacement [6]: 0%
17 | O=C(Nc1nc(-c2ccccc2)ns1)c1ccccc1 |  | 410 nM | 31 nM | Ki (Adenosine receptor A2a [2]): 4400 nM
18 | O=C(Nc1nc(-c2ccccn2)cc2ccccc12)c1ccccc1 |  |  |  | Displacement [6]: 0%
19 | COC1CCC(C(=O)Nc2nc(-c3ccccc3)ns2)CC1 (stereo in doubt; 8l) |  | 5300 nM | 110 nM | Ki (Adenosine receptor A2a [2]): 2000 nM
20 | O=C(Nc1nc(-c2ccccc2)ns1)C1CCC(O)CC1 (stereo in doubt) [listing 2 of 2 here] | 37% |  |  | 
21 | O=C(Nc1nc(-c2ccccn2)cs1)c1ccc(Cl)c(Cl)c1 | 20% | 2500 nM | 1600 nM | 
22 | O=C(Nc1nc(-c2ccccc2)nc2ccccc12)c1ccccc1 |  | 240 nM |  | Displacement [6]: 17%; Displacement [7]: 34%
23 | O=C(Nc1ccccc1)Nc1nc(-c2ccccc2)cs1 |  | 9900 nM |  | Displacement [8]: 19%; Displacement [7]: 37%
24 | O=C(Nc1nc(-c2ccccn2)nc2ccccc12)c1ccccc1 |  |  |  | Displacement [6]: 9%; Displacement [7]: 16%

Row | SMILES | Displacement [1] | Ki (Adenosine receptor A3) | Ki (Adenosine receptor A1) | other results
25 | O=C(Nc1nc(-c2ccccc2)ns1)c1ccc(I)cc1 | 19% | 1100 nM |  | Displacement [5]: 49%
26 | O=C(Nc1nc(-c2ccccc2)ns1)c1ccc(Cl)cc1 | 36% | 520 nM | 41 nM | 
27 | O=C(Nc1nc(-c2ccccc2)ns1)c1ccc(O)cc1 |  | 130 nM | 7.3 nM | Ki (Adenosine receptor A2a [2]): 570 nM
28 | COc1ccc(C(=O)Nc2nc(-c3ccccc3)nc3ccccc23)cc1 |  | 27 nM | 1800 nM | Displacement [6]: 44%
29 | O=C(Nc1nc(-c2ccccc2)ns1)c1ccc([N+](=O)[O-])cc1 | 5% |  |  | Displacement [4]: 28%; Displacement [5]: 34%
30 | O=C(Nc1nc(-c2ccccn2)cs1)c1ccccc1 |  | 3400 nM | 1700 nM | Ki (Adenosine receptor A2a [2]): 8700 nM
31 | COc1ccc(NC(=O)Nc2nc(-c3ccccn3)cs2)cc1 | 11% | 147000 nM |  | Displacement [5]: 4%
32 | COc1ccc(C(=O)Nc2nc(-c3ccccc3)cs2)cc1 |  | 670 nM | 76 nM | Ki (Adenosine receptor A2a [2]): 1900 nM
33 | O=C(Nc1nc(-c2ccccn2)cs1)c1ccc(I)cc1 | 50% |  |  | 
34 | O=C(Nc1nc(-c2ccccc2)ns1)C1CCC(O)CC1 (stereo in doubt; 8n) [listing 2 of 2 here] |  | 2700 nM | 42 nM | 
35 | CC(C)Oc1ccc(C(=O)Nc2nc(-c3ccccn3)cs2)cc1 | 44% | 3700 nM | 5800 nM | 
36 | COC(=O)C1=C2C=CN(C)C=C2c2nc(-c3ccccc3)nn2C1 |  | 170 nM |  | 
37 | O=C(Nc1ccccc1)Nc1nc(-c2ccccc2)ns1 | 48% | 4000 nM | 1000 nM | 
38 | COc1ccccc1NC(=O)Nc1nc(-c2ccccc2)ns1 | 38% |  |  | Displacement [4]: 20%; Displacement [5]: 27%
39 | COc1ccc(C(=O)Nc2nc(-c3ccccn3)cc3ccccc23)cc1 |  |  | > 10000 nM | Displacement [9]: 37%; Ki (Adenosine receptor A2a [3]): > 10000 nM; Displacement [10]: 19%
40 | Nc1nc2ccc(Cl)cc2c2nc(-c3ccco3)nn12 [CGS-15943] |  | 140 nM |  | 
41 | O=C(Nc1nc(-c2ccccc2)ns1)C1CCCCC1 | 16% | 16000 nM | 1400 nM | 
42 | COc1ccc(C(=O)Nc2nc(-c3ccccc3)cc3ccccc23)cc1 |  | 79 nM | 3000 nM | Displacement [6]: 35%
43 | COc1ccc(C(=O)Nc2cccc(-c3ccccc3)c2)cc1 | 41% | 10000 nM |  | Displacement [5]: 30%
44 | COc1ccc(C(=O)Nc2cc(-c3ccccc3)[nH]n2)cc1 | 16% |  |  | Displacement [4]: 35%; Displacement [5]: 20%
45 | COc1ccc(NC(=O)Nc2nc(-c3ccccc3)ns2)cc1 | 16% | 3300 nM |  | Displacement [5]: 44%
46 | Cc1ccc(C(=O)Nc2nc(-c3ccccn3)cs2)cc1 | 44% | 3200 nM | 1600 nM | 
47 | O=C(Nc1nc(-c2ccccn2)cs1)C1CCCC1 |  | 2100 nM | 920 nM | Ki (Adenosine receptor A2a [2]): 1300 nM
48 | O=C(Nc1ccccc1)Nc1nc(-c2ccccn2)cs1 |  | 5000 nM | 930 nM | Ki (Adenosine receptor A2a [2]): 920 nM
